According to publication PMC7175131, “Synthesis, In Vitro Evaluation and Molecular Docking of the 5-Acetyl-2-aryl-6-hydroxybenzo[b]furans against Multiple Targets Linked to Type 2 Diabetes” (Biomolecules, 2020):
Values joined by “and” are separate entries in the source; they are usually repeats but may differ in a detail not shown here. Identical values can stand only once. Like-named read-outs stand apart in the source and are kept apart here.

Columns and labels:
[1] = DPPH radical scavenging assay; conditions: DPPH 0.3 mM in methanol, 45 min in the dark, 512 nm
Method: Antioxidant activities of compounds 2a–h against ascorbic acid (Sigma Aldrich, Saint Louis, Missouri, USA) as a positive control were evaluated using 2,2-diphenyl-1-picrylhydrazyl (DPPH) radical scavenging assay following a reported method by Zhu et al.. Triplicate solutions of the test compounds and the control in methanol (concentrations ranging from 0 µM to 50 µM) were treated with a solution of DPPH (0.3 mM) in methanol. The mixtures were incubated in the dark for 45 min and the absorbances were recorded at the wavelength of 512 nm using Varioskan flash microplate spectrophotometer reader. The inhibition was calculated in terms of percentage using the formula below, DPPH radical scavenged (%)=AbC − AbS/AbC×100, where AbC is absorbance of control and AbS the absorbance of the test sample. A graph of percentage inhibition of free radical activity was plotted against concentration of the sample.

[2] = molecular target: T1, α-Glucosidase type 1 from baker's yeast (Saccharomyces cerevisiae, UniProt P53341); assay: biochemical; assay type: biochemical
T1 construct: purchased Sigma Aldrich (Pty) Ltd
Method: The IC50 values of these compounds were calculated through the nonlinear regression analysis using Origin Pro 9.0 (OriginLab Corporation, Northampton, MA, USA) and are expressed as the mean standard deviation (SD) of three distinct experiments.

[3] = molecular target: T2, human recombinant β-secretase (Homo sapiens, UniProt P56817); assay: β-secretase (BACE-1) FRET enzyme assay; assay type: biochemical; conditions: for IC50: FRET, sodium acetate pH 4.5, 60 min, triplicate
T2 construct: purchased Pan Vera / Thermo Fisher Scientific Corporation; host or cells: baculovirus expression
Method: The assays were conducted in triplicates. […] The percentage inhibition was calculated using the following equation: Inhibition (%)=1–(S –S0)/(C –C0) ×100, where C is the fluorescence of control (enzyme, assay buffer and substrate) after 60 min of incubation, C0 is the fluorescence of control at time 0, S is the fluorescence of tested samples (enzyme, sample solution and substrate) after 60 min. of incubation and S0 the fluorescence of the tested samples at time 0. The IC50 values were calculated with Origin Pro 9.0. (OriginLab Corporation).

PTP1B [4] = molecular target: T3, PTP1B (Homo sapiens, UniProt P18031); assay: PTP1B inhibition assay (pNPP substrate); assay type: biochemical; conditions: Hepes buffer pH 7.0, triplicate
T3 construct: purchased Sigma Aldrich, Modderfontein, South Africa
T3 sequence (P18031 1-435): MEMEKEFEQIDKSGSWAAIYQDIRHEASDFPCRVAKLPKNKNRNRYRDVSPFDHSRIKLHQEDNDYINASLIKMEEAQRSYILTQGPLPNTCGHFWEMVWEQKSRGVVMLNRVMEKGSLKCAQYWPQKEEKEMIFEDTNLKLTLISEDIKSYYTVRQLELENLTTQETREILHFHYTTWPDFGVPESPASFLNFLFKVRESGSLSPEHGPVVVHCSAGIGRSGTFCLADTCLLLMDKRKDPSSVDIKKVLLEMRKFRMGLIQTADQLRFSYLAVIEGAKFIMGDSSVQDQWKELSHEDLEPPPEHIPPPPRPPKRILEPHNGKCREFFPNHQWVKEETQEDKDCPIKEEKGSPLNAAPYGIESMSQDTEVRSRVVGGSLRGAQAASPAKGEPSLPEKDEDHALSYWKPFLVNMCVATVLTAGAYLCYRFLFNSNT
Method: Activity of PTPase (Sigma Aldrich, Modderfontein, South Africa) was evaluated using p-nitrophenylphosphate (PNPP) as the substrate. […] The reaction was stopped by the addition of 30 μL of 3 M NaOH and absorbance was determined at wavelength of 410 nm. Control tubes without the enzyme were ran in parallel to nullify the nonenzymatic reaction and for calculating the concentration of p-nitrophenolate ions produced in the reaction mixture.

cyclooxygenase-2 (COX-2) = molecular target: T4, cyclooxygenase-2 (COX-2) (Homo sapiens, UniProt P35354); assay: COX-2 inhibitor screening kit assay; conditions: COX-2 IC50, means from duplicate runs
T4 sequence (P35354 18-604): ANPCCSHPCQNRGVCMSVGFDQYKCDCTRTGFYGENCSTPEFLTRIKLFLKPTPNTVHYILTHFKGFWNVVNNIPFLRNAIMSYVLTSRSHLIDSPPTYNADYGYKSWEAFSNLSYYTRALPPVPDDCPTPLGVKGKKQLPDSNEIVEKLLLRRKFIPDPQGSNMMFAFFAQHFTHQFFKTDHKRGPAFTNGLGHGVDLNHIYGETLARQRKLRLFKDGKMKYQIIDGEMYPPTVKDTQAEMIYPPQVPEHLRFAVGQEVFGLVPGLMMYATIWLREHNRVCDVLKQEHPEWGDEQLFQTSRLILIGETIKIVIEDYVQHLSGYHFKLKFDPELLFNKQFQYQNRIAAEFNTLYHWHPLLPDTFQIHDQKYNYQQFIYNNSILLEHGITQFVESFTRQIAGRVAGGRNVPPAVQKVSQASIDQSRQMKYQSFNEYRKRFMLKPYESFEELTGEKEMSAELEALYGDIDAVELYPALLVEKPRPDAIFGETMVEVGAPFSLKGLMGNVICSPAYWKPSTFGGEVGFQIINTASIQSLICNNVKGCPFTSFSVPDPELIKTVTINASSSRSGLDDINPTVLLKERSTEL
Method: The absorbance was measured using a Varioskan flash microplate spectrophotometer and the IC50 values were calculated with the aid of Origin Pro 9.0.

α-glucosidase = molecular target: T5, α-glucosidase (Saccharomyces cerevisiae, UniProt P53341); assay: Kinetic studies towards α-glucosidase inhibition (Lineweaver-Burk and Dixon plots); assay type: biochemical; conditions: for mode of inhibition of α-glucosidase: Lineweaver-Burk and Dixon plots; for Ki: inhibitor 0.5-20 µM, substrate 0–25 µM, read-out: Ki (Dixon plot), α-glucosidase
T5 construct: purchased Sigma Aldrich (Pty) Ltd
Method: The α-glucosidase inhibitory activity of compounds 2a–h was evaluated in triplicates in a 96 well microplate following a protocol by Shi et al.. […] Then 20 µL of 2 mM PNP-G was added and the absorbances were recorded at a wavelength of 405 nm using Varioskan flash microplate spectrophotometer (Thermo Scientific, Waltham, MA, USA). The IC50 values of these compounds were calculated through the nonlinear regression analysis using Origin Pro 9.0 (OriginLab Corporation, Northampton, MA, USA) and are expressed as the mean standard deviation (SD) of three distinct experiments.
The kinetics studies on compounds 2c and 2h were performed according to the reaction conditions in 2.3.1 with inhibitors of various concentrations (0.5, 5, 10, 20 µM) and the ranges of final substrate concentration were 0–25 µM. The type of inhibition was determined by using Lineweave-Burk plot (the inverse of velocity (1/v) against the inverse of the substrate concentration (1/[S]). The inhibitor constant was obtained by Dixon plot (the inverse of velocity (1/v) against concentration of inhibitor at each substrate concentration).

PTP1B [5] = molecular target: T3, PTP1B; assay: Kinetic studies towards PTP1B inhibition (Lineweaver-Burk and Dixon plots); assay type: biochemical; conditions: for mode of inhibition of PTP1B: Lineweaver-Burk and Dixon plots; for Ki: inhibitor 0.5-20 µM, substrate 0-25.0 µM, read-out: Ki (Dixon plot), PTP1B
Method: The PTP1B inhibitory activity of compounds 2a–h and sodium orthovanadate was evaluated in triplicates in a 96 well microplate following a protocol by Goldstein et al.. Activity of PTPase (Sigma Aldrich, Modderfontein, South Africa) was evaluated using p-nitrophenylphosphate (PNPP) as the substrate. A 10 μL of PTP1B solution (0.02 U/mL) in 50 mM Hepes buffer (pH 7.0) with different concentrations (0.5, 10, 25, 50, 100 μM) of the test compounds and the reference standard were incubated at 25 °C for 10 min. After pre-incubation, 25 μL of HEPES buffer and 25 μL of 2 mM (pNPP) were added and the mixtures were incubated at 37 °C for 30 min. The reaction was stopped by the addition of 30 μL of 3 M NaOH and absorbance was determined at wavelength of 410 nm. Control tubes without the enzyme were ran in parallel to nullify the nonenzymatic reaction and for calculating the concentration of p-nitrophenolate ions produced in the reaction mixture. A molar extinction coefficient of 1.78 ×10^4 M^-1 cm^-1 was used to calculate the concentration of p-nitrophenolate ions produced in the reaction mixture.
Compounds 2c and 2h were subjected to kinetic analysis following the procedure outlined in 2.3.2 with inhibitors of various concentrations (0.5, 5, 10, 20 µM). The assay was performed with substrate of various concentrations (0, 2.5, 6.25, 12.5, 25.0 µM). The absorbance due to the p-nitrophenol produced by dephosphorylation of PTP1B was measured at 405 nm. The kinetic parameters were determined using Lineweaver-Burk double-reciprocal plots and the Dixon the Dixon plot method at increasing substrate and compound concentrations.

[6] = yeast enzyme, PNP-G substrate, pH 6.8, 37 °C, mean ± SD, triplicate, read-out: IC50 α-Glucosidase

T5 sequence (P53341 whole entry): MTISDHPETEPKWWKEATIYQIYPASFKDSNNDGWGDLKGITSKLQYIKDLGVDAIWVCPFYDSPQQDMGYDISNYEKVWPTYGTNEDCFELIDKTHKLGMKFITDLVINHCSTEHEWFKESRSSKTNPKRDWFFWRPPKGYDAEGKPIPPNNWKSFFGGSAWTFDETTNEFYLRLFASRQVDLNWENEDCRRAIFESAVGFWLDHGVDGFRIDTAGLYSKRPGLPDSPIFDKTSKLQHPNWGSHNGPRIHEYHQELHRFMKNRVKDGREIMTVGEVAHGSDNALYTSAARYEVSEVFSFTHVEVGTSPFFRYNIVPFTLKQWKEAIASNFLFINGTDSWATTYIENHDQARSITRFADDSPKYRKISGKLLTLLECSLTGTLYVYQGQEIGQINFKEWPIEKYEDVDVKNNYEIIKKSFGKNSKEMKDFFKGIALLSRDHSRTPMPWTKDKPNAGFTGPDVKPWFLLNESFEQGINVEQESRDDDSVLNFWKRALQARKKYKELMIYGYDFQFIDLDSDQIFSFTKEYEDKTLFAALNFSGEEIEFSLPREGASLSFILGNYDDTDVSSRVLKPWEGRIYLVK
T1 sequence (P53341 whole entry): as above
T2 sequence (P56817 46-501): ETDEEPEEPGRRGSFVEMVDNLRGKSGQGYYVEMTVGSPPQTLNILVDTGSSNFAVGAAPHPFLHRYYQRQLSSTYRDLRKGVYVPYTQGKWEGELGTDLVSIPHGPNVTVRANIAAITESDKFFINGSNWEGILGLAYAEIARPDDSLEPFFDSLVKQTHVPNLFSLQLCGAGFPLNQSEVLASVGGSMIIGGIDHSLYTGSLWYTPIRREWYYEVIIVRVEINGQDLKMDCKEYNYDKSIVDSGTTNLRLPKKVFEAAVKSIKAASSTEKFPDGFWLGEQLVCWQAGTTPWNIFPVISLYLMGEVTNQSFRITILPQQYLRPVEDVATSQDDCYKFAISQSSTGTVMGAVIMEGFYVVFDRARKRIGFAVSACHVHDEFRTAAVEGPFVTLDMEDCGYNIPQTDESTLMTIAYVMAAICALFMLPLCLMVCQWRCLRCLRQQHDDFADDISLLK

| IC50 [2, 6] [µM] | SMILES | IC50 [1] | IC50 [2] [µM] | IC50 [3] [µM] | IC50 (PTP1B [4]) [µM] | melting point [°C] | activity against β-secretase (in words) [3] | activity against α-glucosidase (in words) ([2]; tested 0–100 μM) | IC50 (cyclooxygenase-2 (COX-2)) | mode of inhibition of α-glucosidase (α-glucosidase) | Ki (α-glucosidase) [µM] | Vmax, α-glucosidase in presence of inhibitor (α-glucosidase; unchanged with inhibitor concentration) | mode of inhibition of PTP1B (PTP1B [5]) | Ki (PTP1B [5]) [µM] |
| --- | --- | --- | --- | --- | --- | --- | --- | --- | --- | --- | --- | --- | --- | --- |
| – | CC(=O)c1cc2cc(-c3ccc(Cl)cc3)oc2cc1O [Compound 2e, 1-[2-(4-Chlorophenyl)-6-hydroxybenzofuran-5-yl]ethanone] | 11.3 ± 1.2 µM | 64.9 ± 0.05 | > 100 | 21.5 | 170 to 173 | – | – | – | – | – | – | – | – |
| – | CC(=O)c1cc2cc(-c3ccc(C)cc3)oc2cc1O [Compound 2f, 1-[6-Hydroxy-2-(4-tolyl)benzofuran-5-yl]ethanone] | 26.7 ± 0.62 µM | 14.05 ± 0.07 | > 100 | 26.7 | 169 to 172 | inactive | – | – | – | – | – | – | – |
| > 100 | CC(=O)c1cc2cc(-c3cccc(Cl)c3)oc2cc1O [Compound 2d, 1-[2-(3-Chlorophenyl)-6-hydroxybenzofuran-5-yl]ethanone] | 15.5 ± 0.21 µM | – | > 100 | 29.3 | – | – | – | – | – | – | – | – | – |
| – | O=C1O[C@H]([C@@H](O)CO)C(O)=C1O [Ascorbic acid, ascorbic acid, reference compound] | 10.7 ± 0.42 µM | – | – | – | – | – | – | – | – | – | – | – | – |
| – | CC(=O)c1cc2cc(-c3ccccc3)oc2cc1O [Compound 2a, 1-[6-Hydroxy-2-phenylbenzofuran-5-yl]ethanone] | 12.2 ± 2.1 µM | > 100 | 63.15 ± 0.07 | 23 ± 0.23 | – | – | No activity | – | – | – | – | – | – |
| 0.56 ± 0.24 | COc1ccc(-c2cc3cc(C(C)=O)c(O)cc3o2)cc1 [Compound 2g, 1-[6-Hydroxy-2-(4-methoxyphenyl)benzofuran-5-yl]ethanone] | 16.8 ± 0.38 µM | – | 27.3 ± 1.1 | 31.9 | – | – | – | 2.3 µM and 2.33 µM | – | – | – | – | – |
| 4.65 ± 0.13 | CC(=O)c1cc2cc(-c3cccc(F)c3)oc2cc1O [Compound 2b, 1-[2-(3-Fluorophenyl)-6-hydroxybenzofuran-5-yl]ethanone] | 46.5 ± 0.24 µM | – | > 100 | 24.5 ± 0.29 | – | – | – | – | – | – | – | – | – |

| SMILES | IC50 [2, 6] [µM] | IC50 [1] | IC50 [2] [µM] | IC50 [3] [µM] | IC50 (PTP1B [4]) [µM] | melting point [°C] | activity against β-secretase (in words) [3] | activity against α-glucosidase (in words) ([2]; tested 0–100 μM) | IC50 (cyclooxygenase-2 (COX-2)) | mode of inhibition of α-glucosidase (α-glucosidase) | Ki (α-glucosidase) [µM] | Vmax, α-glucosidase in presence of inhibitor (α-glucosidase; unchanged with inhibitor concentration) | mode of inhibition of PTP1B (PTP1B [5]) | Ki (PTP1B [5]) [µM] |
| --- | --- | --- | --- | --- | --- | --- | --- | --- | --- | --- | --- | --- | --- | --- |
| COc1cc(OC)cc(-c2cc3cc(C(C)=O)c(O)cc3o2)c1 [Compound 2h, 1-[6-Hydroxy-2-(3,5-dimethoxyphenyl)benzofuran-5-yl]ethanone] | 0.78 ± 0.31 | 6.28 ± 0.33 µM | – | 25.8 ± 0.08 | 11.9 ± 0.35 | 155 to 156 | – | – | 99.6 ± 2.6 µM | mixed mode | 5.11 ± 0.42 | 0.19 | non-competitive | 0.49 ± 0.01 |
| CC(=O)c1cc2cc(-c3ccc(F)cc3)oc2cc1O [Compound 2c, 1-[2-(4-Fluorophenyl)-6-hydroxybenzofuran-5-yl]ethanone] | 0.11 ± 0.04 | 9.8 µM and 9.82 µM | – | > 100 | 17.8 | – | – | – | 2.8 µM and 2.81 µM | non-competitive | 15.09 ± 0.03 | – | mixed-type | 5.2 ± 0.1 |
